Data as given in patent US20230372334A1, “USE OF AN ERK INHIBITOR FOR THE TREATMENT OF MYELOFIBROSIS” (Novartis AG, priority 2020, published 2023).
“Also recorded” adds a separate entry of the source.

Tests used:
MPLW515L mice = test: MPLW515L mutant MPN mouse model; format: in vivo; details: oral gavage, FIG. 2D
[1] = system: Ba/F3 cell line stably expressing erythropoietin receptor (EpoR) and wild-type JAK2; test: Antiproliferative activity, CellTiter-Glo viability assay at 48h, Ba/F3 EpoR wild-type JAK2; format: cell-based, murine; details: EpoR Jak2 wild type Ba/F3 cells; FIG. 6
Procedure: (§1) To assess anti-proliferative effects of inhibitors, cells were seeded at 10′000/200 ul with increasing inhibitor concentrations in triplicate. Proliferation was assessed at 48h using the CellTiter-Glo viability assay (Promega) and normalized to cell growth in medium with equivalent volume of DMSO.

Jak2V617F mice = test: Jak2V617F knock-in mouse model (polycythemia vera phenotype), competitive BM transplant; format: in vivo; details: for reduction of hematocrit: Example 4, FIG. 5B
[2] = system: JAK2V617F PV/MF mouse model; test: JAK2V617F PV/MF mouse model, 14 consecutive days oral dosing (Example 3); details: ruxolitinib 60 mg/kg BID, Compound A 75 mg/kg QD, 14 days; for body weight change: FIG. 4A; for bone marrow cellularity / bone marrow toxicity: FIG. 4B; for WBC count: FIG. 4C; for platelet count: FIG. 4D; for elevated hematocrit / splenomegaly: vs vehicle; for elevated hematocrit: FIG. 3A; for splenomegaly: FIG. 3B
Excerpt: For treatment studies, bone marrow (BM) from primary Jak2V617F Vav-Cre CD45.2 mice was mixed 1:1 with Jak2 wild-type CD45.1 BM and transplanted into lethally irradiated CD45.1 recipients. Development of the MPN phenotype was confirmed by peripheral blood counts 2 months after BM transplantation. Mice were randomized to treatment groups according to blood counts and treated by oral gavage for 1-4 weeks.

[3] = system: CD34+ peripheral blood mononuclear cells (PBMCs) of a MF patient; test: Colony growth from CD34+ PBMCs of a MF patient; format: cell-based, human; details: FIG. 5A
[4] = system: ERK downstream targets RSK3 and DUSP6; test: ERK signaling in splenocytes of Jak2V617F mice by Western blot; format: in vivo, mouse; details: FIG. 2A
[5] = system: Ba/F3 cell line stably expressing erythropoietin receptor (EpoR) and Jak2V617F; test: Antiproliferative activity, CellTiter-Glo viability assay at 48h, Ba/F3 EpoR Jak2V617F; format: cell-based, murine; details: EpoR Jak2V617F mutant Ba/F3 cells; FIG. 6
Procedure: as §1

Row | SMILES | correction of leukocytosis (WBC count) (MPLW515L mice) | suppression of proliferation (decrease in IC50 value) [1] | reduction of hematocrit (Jak2V617F mice) | polyglobulia or polycythemia (hematocrit levels) (Jak2V617F mice; oral gavage, FIG. 2B) | splenomegaly (spleen weight) (Jak2V617F mice; oral gavage, FIG. 2C) | polycythemia [2] | tolerability [2] | body weight change [2] | bone marrow cellularity / bone marrow toxicity [2] | WBC count [2] | platelet count [2] | elevated hematocrit [2] | splenomegaly [2] | growth of colonies derived from CD34+ PBMCs [3] | activation of ERK downstream targets RSK3 and DUSP6 [4] | suppression of proliferation (decrease in IC50 value) [5] | elevated hematocrit ([2]; listed as Ruxolitinib) | splenomegaly ([2]; listed as Ruxolitinib)
1 | CNC[C@@H](NC(=O)c1ccc(-c2nc([C@H]3CC[C@H](O)[C@@H](F)C3)cnc2N)cc1F)c1cc(F)cc(Br)c1 [Compound A, 4-(3-amino-6-((1S,3S,4S)-3-fluoro-4-hydroxycyclohexyl)pyrazin-2-yl)-N-((S)-1-(3-bromo-5-fluorophenyl)-2-(methylamino)ethyl)-2-fluorobenzamide] | ruxolitinib was superior to that of Compound A | ruxolitinib was superior to that of Compound A | comparable reduction | potently corrected | potently corrected | significantly normalizes | well tolerated | lack of body weight loss | absence of bone marrow toxicity | normal | normal; also recorded: absence of thrombocytopenia | significantly normalized; also recorded: significantly reduced; also recorded: reduces | significantly normalizes; also recorded: significantly reduced | comparably suppressed growth | inhibited activation | ruxolitinib was superior to that of Compound A |  | 
2 | N#CC[C@H](C1CCCC1)n1cc(-c2ncnc3[nH]ccc23)cn1 [ruxolitinib, (R)-3-(4-(7H-pyrrolo[2,3-d]pyrimidin-4-yl)-1H-pyrazol-1-yl)-3-cyclopentylpropanenitrile, reference compound] | superior to that of Compound A |  | comparable reduction |  |  | significantly normalized | well tolerated | lack of body weight loss | absence of bone marrow toxicity | normal | normal; also recorded: absence of thrombocytopenia | significantly normalized | significantly normalized | comparably suppressed growth |  |  | significantly reduced | significantly reduced
